{
  "source": "patent US9155759B2",
  "about": "“Heterochain aliphatic poly-N-oxide copolymers and vaccinating agents and drugs based thereon” (priority 2010, dated 2015)",
  "key": {"[1]": {"assay": "Antidotal properties at acute CuSo4 poisoning", "format": "in vivo", "method": "The investigation was done in vivo at an acute CuSo4 poisoning. The preparations are administered to 7 groups of animals of which a normal saline solution is administered to the animals of the first group, CuSo4 alone in the doses fatal for animals (mg/kg): 12.5; 25.0; and 50.0 to the animals of groups 2÷4, and the similar CuSo4 doses in combination with the similar doses of CP—NO-3-1 are administered to the animals of groups 5÷7.\nThe results of investigations presented in table 4 testify to a pronounced antidotal effect of CP—NO."}, "[2]": {"tested_on": "erythrocytes", "assay": "Quartz (SiO2) erythrocyte hemolysis model", "format": "cell-based, Human", "conditions": "for Protection from hemolysis / Hemolysis: SiO2 3 mg; for Hemolysis: 1 hour, 37° C.", "method": "The investigation was done on a model of quartz (SiO2) erythrocyte hemolysis using the international standard of quartz dust DQ-12 having a dispersion degree of less than 3 μm according to the A. David method (1976). Human blood was taken with heparin, erythrocytes were thrice washed in a 10-fold volume of a water-white Henx solution followed by centrifuging at 3000 rpm for 10 min. An erythrocyte suspension was resuspended to a 4% concentration ([…]). All investigations were done in 3÷5 parallel assays. The samples of SiO2 and erythrocytes were taken under continuous agitation on a magnetic agitator.\n1 ml of a 4% erythrocyte suspension was mixed with 1 ml of the investigated preparation adding 1 ml of 0.3% (3 mg/ml) of a SiO2 suspension and incubated for 1 hour at a temperature of 37° C. carefully shaking the samples every 5 minutes. After incubation all samples were added with 7 ml of a buffer, it was centrifuged and the supernatant was photometered on SF-26 at 540 nm. The results of hemolysis were expressed in percents taking as 100% the content of hemoglobin in the samples of 1 ml of a 4% erythrocyte suspension with 9 ml of distilled water. The protective effect of the investigated preparations was calculated according to the formula and expressed in percents: […]\nE540 K SiO2 is extinction of the control samples—a “water-silicon-erythrocytes” test tube.\nA property of CP—NO to protect erythrocytes from hemolysis was compared to high molecular plasma-substituting solutions of polyvinylpyrrolidone (hemodez), dextran (polyglucin) and albumin. As a buffer, a water-white Henx solution was used."}},
  "note": "Marks after values point to notes of the source that are not given here.",
  "data": [
    {"molecule": "O=S(=O)([O-])[O-].[Cu+2]", "note": "[CuSO4]", "values": [
      {"measurement": "% of animal death at days 1-2", "setting": "[1]; CuSO4 12.5 mg/kg alone", "result": 100, "unit": "%"},
      {"measurement": "Animal survivability at day 30", "setting": "[1]; CuSO4 12.5 mg/kg alone", "result": 0, "unit": "%"},
      {"measurement": "% of animal death at days 1-2", "setting": "[1]; CuSO4 25.0 mg/kg alone", "result": 100, "unit": "%"},
      {"measurement": "Animal survivability at day 30", "setting": "[1]; CuSO4 25.0 mg/kg alone", "result": 0, "unit": "%"},
      {"measurement": "% of animal death at days 1-2", "setting": "[1]; CuSO4 50.0 mg/kg alone", "result": 100, "unit": "%"},
      {"measurement": "Animal survivability at day 30", "setting": "[1]; CuSO4 50.0 mg/kg alone", "result": 0, "unit": "%"}
    ]},
    {"molecule": "Albumin", "values": [
      {"measurement": "protective properties against hemolysis (in words)", "setting": "[2]; comparison detoxicants", "result": "a pronounced effect is achieved only in high doses"},
      {"measurement": "Protection from hemolysis", "setting": "[2]; dose 100 μg/ml", "result": 18.0, "unit": "%"},
      {"measurement": "Hemolysis", "setting": "[2]; dose 100 μg/ml", "result": 82.0, "unit": "%"},
      {"measurement": "Protection from hemolysis", "setting": "[2]; dose 1000 μg/ml", "result": "86.5* %"},
      {"measurement": "Hemolysis", "setting": "[2]; dose 1000 μg/ml", "result": "13.5* %"}
    ]}
  ]
}
